# Results taken from article PMC11364775, “Ion occupancy of the selectivity filter controls opening of a cytoplasmic gate in the K2P channel TALK-2” (Nature Communications, 2024).
# Columns and labels:
# [1] = molecular target: T1, WT TREK-2 channels (human K2P10.1) (Homo sapiens, UniProt P57789); assay: Tail current deactivation kinetics with pore blocker (inside-out patch); type: cell-based
# T1 construct: expressed in transfected cells; host or cells: Xenopus laevis oocytes (cRNA injection), excised inside-out patches
# T1 sequence (P57789 1-538): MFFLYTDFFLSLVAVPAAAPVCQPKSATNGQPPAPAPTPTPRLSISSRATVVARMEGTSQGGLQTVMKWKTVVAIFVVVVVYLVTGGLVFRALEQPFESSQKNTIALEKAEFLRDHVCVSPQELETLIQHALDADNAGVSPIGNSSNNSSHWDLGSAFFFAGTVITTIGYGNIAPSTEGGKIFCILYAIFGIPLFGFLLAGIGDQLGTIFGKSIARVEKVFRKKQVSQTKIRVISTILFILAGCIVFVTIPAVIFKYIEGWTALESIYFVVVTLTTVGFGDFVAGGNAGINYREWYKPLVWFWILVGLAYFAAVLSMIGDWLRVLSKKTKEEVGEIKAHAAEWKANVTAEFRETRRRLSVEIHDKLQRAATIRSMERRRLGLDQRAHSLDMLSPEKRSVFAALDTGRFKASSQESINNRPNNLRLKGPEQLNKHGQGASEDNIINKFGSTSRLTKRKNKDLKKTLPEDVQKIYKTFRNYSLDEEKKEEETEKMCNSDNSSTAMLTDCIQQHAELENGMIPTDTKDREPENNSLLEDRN
# WT TALK-2 channels = molecular target: T2, WT TALK-2 channels (Homo sapiens, UniProt Q96T54); assay: Conductance-voltage (G-V) curves from tail currents, V1/2 (intracellular Rb+); type: cell-based; design: expressed in transfected cells; host or cells: Xenopus laevis oocytes (cRNA injection), excised inside-out patches; conditions: for Normalized current: TALK-2 WT + 1 mM TPenA
# T2 sequence (Q96T54 1-332): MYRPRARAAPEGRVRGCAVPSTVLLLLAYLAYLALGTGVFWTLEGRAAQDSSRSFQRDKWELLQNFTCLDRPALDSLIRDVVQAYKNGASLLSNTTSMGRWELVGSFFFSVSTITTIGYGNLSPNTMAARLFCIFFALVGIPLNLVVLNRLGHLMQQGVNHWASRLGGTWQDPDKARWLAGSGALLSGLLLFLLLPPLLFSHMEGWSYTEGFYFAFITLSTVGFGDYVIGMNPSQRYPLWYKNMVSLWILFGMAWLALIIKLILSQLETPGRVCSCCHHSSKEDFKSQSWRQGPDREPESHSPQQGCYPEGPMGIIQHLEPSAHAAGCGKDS
# Text: The voltage-dependent activation mechanism of the SF gate in K2P channels allows to estimate the electrical work (ΔG = zFΔV1/2) required for pore opening by fitting the G–V curve to a Boltzmann equation. […] The open state represents the situation of both gates being simultaneously open but voltage can only exert force on the SF gate that functions as voltage sensor. […] We further tested whether mutations that open the lower gate (L262A and L264A) would affect the extracellular pH sensitivity. […] We further explored this concept of allosteric coupling using the mutations identified in the functional alanine screen of TM2 and TM4. […]
# Conductance-voltage (G–V) relationships were determined from tail currents recorded at a holding potential (VH) of −80 mV after 300 ms depolarizing steps as indicated in the respective figure legend. Data were analyzed with a single Boltzmann fit following Eq. 6:6 GV=Imax/1+e^V−V1/2/slope+Ibase where V1/2 represents the voltage of half-maximal activation, s is the slope factor and Imax and Ibase represent the upper and lower asymptotes. Under appropriate experimental conditions, you can use slope to calculate the valence (charge) of the ion moving across the channel. Slope equals R * T/ z * F where R is the universal gas constant, T is temperature in K, F is the Faraday constant, and z is the valence.
structure (smiles),measurement,setting,value
"CCCCC[N+](CCCCC)(CCCCC)CCCCC [TPenA, Tetra-pentyl-ammonium chloride]",effect of TPenA inhibition on tail current kinetics,[1]; TREK-2,no effect
same,deactivation time constant τ of tail currents,[1]; intracellular Rb+ with 50 µM TPenA,11.2 ± 1.4 ms
same,leftward shift of the G-V curve,"WT TALK-2 channels; 1 mM TPenA, intracellular Rb+",46.1 ± 4.9 mV
same,Normalized current,WT TALK-2 channels; Voltage 0.000,0.197
same,Normalized current,WT TALK-2 channels; Voltage 0.005,0.242
same,Normalized current,WT TALK-2 channels; Voltage 0.010,0.308
same,Normalized current,WT TALK-2 channels; Voltage 0.015,0.381
same,Normalized current,WT TALK-2 channels; Voltage 0.020,0.454
same,Normalized current,WT TALK-2 channels; Voltage 0.025,0.532
same,Normalized current,WT TALK-2 channels; Voltage 0.030,0.607
same,Normalized current,WT TALK-2 channels; Voltage 0.035,0.671
same,Normalized current,WT TALK-2 channels; Voltage 0.040,0.728
same,Normalized current,WT TALK-2 channels; Voltage 0.045,0.768
same,Normalized current,WT TALK-2 channels; Voltage 0.050,0.808
same,Normalized current,WT TALK-2 channels; Voltage 0.055,0.838
same,Normalized current,WT TALK-2 channels; Voltage 0.060,0.865
same,Normalized current,WT TALK-2 channels; Voltage 0.065,0.890
same,Normalized current,WT TALK-2 channels; Voltage 0.070,0.906
same,Normalized current,WT TALK-2 channels; Voltage 0.075,0.928
same,Normalized current,WT TALK-2 channels; Voltage 0.080,0.937
same,Normalized current,WT TALK-2 channels; Voltage 0.085,0.948
same,Normalized current,WT TALK-2 channels; Voltage 0.090,0.958
same,Normalized current,WT TALK-2 channels; Voltage 0.095,0.967
same,Normalized current,WT TALK-2 channels; Voltage 0.100,0.967
same,Normalized current,WT TALK-2 channels; Voltage 0.105,0.966
same,Normalized current,WT TALK-2 channels; Voltage 0.110,0.976
same,Normalized current,WT TALK-2 channels; Voltage 0.115,0.977
same,Normalized current,WT TALK-2 channels; Voltage 0.120,0.974
same,Normalized current,WT TALK-2 channels; Voltage 0.125,0.985
same,Normalized current,WT TALK-2 channels; Voltage 0.130,0.971
same,Normalized current,WT TALK-2 channels; Voltage 0.135,0.973
same,Normalized current,WT TALK-2 channels; Voltage 0.140,0.960
same,Normalized current,WT TALK-2 channels; Voltage 0.145,0.967
same,Normalized current,WT TALK-2 channels; Voltage 0.150,0.968
same,Normalized current,WT TALK-2 channels; Voltage 0.155,0.943
same,Normalized current,WT TALK-2 channels; Voltage 0.160,0.968
same,Normalized current,WT TALK-2 channels; Voltage -0.005,0.160
same,Normalized current,WT TALK-2 channels; Voltage -0.010,0.136
same,Normalized current,WT TALK-2 channels; Voltage -0.015,0.121
same,Normalized current,WT TALK-2 channels; Voltage -0.020,0.109
same,Normalized current,WT TALK-2 channels; Voltage -0.025,0.102
same,Normalized current,WT TALK-2 channels; Voltage -0.030,0.098
same,Normalized current,WT TALK-2 channels; Voltage -0.035,0.094
same,Normalized current,WT TALK-2 channels; Voltage -0.040,0.089
same,Normalized current,WT TALK-2 channels; Voltage -0.045,0.087
same,Normalized current,WT TALK-2 channels; Voltage -0.050,0.085
same,Normalized current,WT TALK-2 channels; Voltage -0.055,0.083
same,Normalized current,WT TALK-2 channels; Voltage -0.060,0.079
same,Normalized current,WT TALK-2 channels; Voltage -0.065,0.079
same,Normalized current,WT TALK-2 channels; Voltage -0.070,0.079
same,Normalized current,WT TALK-2 channels; Voltage -0.075,0.077
same,Normalized current,WT TALK-2 channels; Voltage -0.080,0.077
same,Normalized current,WT TALK-2 channels; Voltage -0.085,0.078
same,Normalized current,WT TALK-2 channels; Voltage -0.090,0.077
same,Normalized current,WT TALK-2 channels; Voltage -0.095,0.078
same,Normalized current,WT TALK-2 channels; Voltage -0.100,0.076
same,Normalized current,WT TALK-2 channels; Voltage -0.105,0.077
same,Normalized current,WT TALK-2 channels; Voltage -0.110,0.079
same,Normalized current,WT TALK-2 channels; Voltage -0.115,0.077
same,Normalized current,WT TALK-2 channels; Voltage -0.120,0.077
same,V1/2,"WT TALK-2 channels; TALK-2 WT, 1 mM ligand",25.5 mV
